Experimental data: patent US20210137948A1, “TREATMENT OF INFECTIONS CAUSED BY NEISSERIA GONOCOCCUS USING A HALOGENATED SALICYLANILIDE” (priority 2018, published 2021)
Like-named read-outs stand apart in the source and are kept apart here.

Legend:
rats = conditions: cited from earlier work
cats = conditions: p.o.; cited from earlier work
[1] = tested on: Neisseria gonorrhoeae CDC panel consisting of 48 isolates; experiment: Agar dilution MIC, CDC panel of 48 isolates (Example 2); assay type: cell-based; conditions: for MIC: Neisseria gonorrhoeae, read-out: Minimal inhibitory concentration
Method: Neisseria gonorrhoeae (Neisseria gonocossus) were tested for antimicrobial susceptibility using agar dilution as described by the Clinical and Laboratory Standards Institute (CLSI), see reference (4).
The concentrations tested for each compound encompass the reported interpretive breakpoints and consist of 8 or more doubling dilutions, ensuring that there is one dilution below the lowest value of QC.
GC agar base +1% defined growth supplement.
Initial screening strains: Neisseria gonorrhoeae CDC panel consisting of 48 isolates. The strains were provided by Clinical and Environmental Microbiology Branch, Division of Healthcare Quality Promotion, CDC (Atlanta, US).
Dilution scheme for reference method: Prepare intermediate 100× antimicrobial agent solutions by making successive serial twofold dilutions. Then, add one part of the 100× antimicrobial solution to […] of molten agar. Plates containing no antimicrobial agent solutions are made for use as growth controls. It is important that no longer than one hour elapses between the time that the stock solution is thawed, the dilutions are prepared and added to the base medium and the plates are poured, see reference (5).
• Add appropriate dilutions of antimicrobial solution to molten test agars that have been allowed to equilibrate in a water bath to 50° C. • Mix the agar and antimicrobial solution thoroughly and pour (20 mL) into Petri dishes on a level surface. Pour quickly after mixing to prevent cooling and partial solidification in the mixing container. Avoid generating bubbles when mixing. • Allow the agar to solidify at room temperature and store them in sealed plastic bags at 2 to 8° C. for up to five days. Preferably use with 24 hours. • Allow plates stored at 2 to 8° C. to equilibrate to room temperature before use. Make certain that the agar surface is dry before inoculating the plates. If necessary, place the plates in an incubator or laminar flow hood for approximately 30 minutes with their lids ajar to hasten drying of the agar surface.
Inoculum preparation: Prepare a standardized inoculum for the agar dilution method by suspending isolated colonies of Neisseria gonorrhoeae selected from an 18-24 hour-old chocolate agar plate directly in Mueller Hinton Broth (MHB) to achieve the density equivalent to a 0.5 McFarland standard and adjusted to obtain a cell density of ˜1-2×10^8 CFU/mL. For N. gonorrhoeae, the McFarland solutions are made at a reading of ˜0.80 in densitometer (Grant Instruments DEN-1B Densitometer) because these values have been evaluated and correspond to the desired CFU/mL count.
Dilution of inoculum suspension: Cultures adjusted to the 0.5 McFarland standard contain approximately 1 to 2×10^8 CFU/mL with most species, and the final inoculum required is 10^4 CFU per spot. When using replicators with 3-mm pins that deliver ˜2.5 μL, dilute the 0.5 McFarland suspension 1:10 in sterile MHB to obtain a concentration of 10^7 CFU/mL. The final inoculum on the agar will be approximately 10^4 CFU per spot. Use the adjusted suspensions for final inoculation within 60 minutes of preparation, see reference (5).
The following procedure was followed: • Arrange the tubes containing the adjusted and diluted bacterial suspensions (10^7 CFU/mL) in order in a rack. Place an aliquot of each well-mixed suspension into the corresponding well in the replicator inoculum block (if being used). • Mark the agar plates for orientation of the inoculum spots. • Apply an aliquot of each inoculum (2.5 μL) to the agar surface, either with an inocula-replicating device or pipette, to obtain a final concentration of ˜10^4 CFU/spot. • Inoculate a growth-control plate (no antimicrobial agent) first and then, starting with the lowest concentration, inoculate the plates containing the different antimicrobial concentrations. […]

rabbits = conditions: p.o.; cited from earlier work
mice = conditions: p.o.; cited from earlier work

Structure (SMILES): O=C(Nc1ccc([N+](=O)[O-])cc1Cl)c1cc(Cl)ccc1O [Niclosamide, 2′,5-dichloro-4′-nitrosalicylanilide]
- LD50 (rats; dermal): 2000 mg/kg
- LD50 (rats; p.o.): 5000 mg/kg
- LD50 (cats): > 1000 mg/kg
- MIC ([1]; Neisseria gonorrhoeae strain CDC # 165): ≤ 0.25 µg/mL
- MIC ([1]; Neisseria gonorrhoeae strain CDC # 166): ≤ 0.25 µg/mL
- MIC ([1]; Neisseria gonorrhoeae strain CDC # 167): ≤ 0.25 µg/mL
- MIC ([1]; Neisseria gonorrhoeae strain CDC # 169): ≤ 0.25 µg/mL
- MIC ([1]; Neisseria gonorrhoeae strain CDC # 170): ≤ 0.25 µg/mL
- MIC ([1]; Neisseria gonorrhoeae strain CDC # 171): ≤ 0.25 µg/mL
- MIC ([1]; Neisseria gonorrhoeae strain CDC # 172): ≤ 0.25 µg/mL
- MIC ([1]; Neisseria gonorrhoeae strain CDC # 173): ≤ 0.25 µg/mL
- MIC ([1]; Neisseria gonorrhoeae strain CDC # 174): ≤ 0.25 µg/mL
- MIC ([1]; Neisseria gonorrhoeae strain CDC # 175): ≤ 0.25 µg/mL
- MIC ([1]; Neisseria gonorrhoeae strain CDC # 176): ≤ 0.25 µg/mL
- MIC ([1]; Neisseria gonorrhoeae strain CDC # 177): ≤ 0.25 µg/mL
- MIC ([1]; Neisseria gonorrhoeae strain CDC # 178): ≤ 0.25 µg/mL
- MIC ([1]; Neisseria gonorrhoeae strain CDC # 179): ≤ 0.25 µg/mL
- MIC ([1]; Neisseria gonorrhoeae strain CDC # 180): ≤ 0.25 µg/mL
- MIC ([1]; Neisseria gonorrhoeae strain CDC # 181): ≤ 0.25 µg/mL
- MIC ([1]; Neisseria gonorrhoeae strain CDC # 182): ≤ 0.25 µg/mL
- MIC ([1]; Neisseria gonorrhoeae strain CDC # 183): ≤ 0.25 µg/mL
- MIC ([1]; Neisseria gonorrhoeae strain CDC # 184): ≤ 0.25 µg/mL
- MIC ([1]; Neisseria gonorrhoeae strain CDC # 185): ≤ 0.25 µg/mL
- MIC ([1]; Neisseria gonorrhoeae strain CDC # 186): ≤ 0.25 µg/mL
- MIC ([1]; Neisseria gonorrhoeae strain CDC # 187): ≤ 0.25 µg/mL
- MIC ([1]; Neisseria gonorrhoeae strain CDC # 188): ≤ 0.25 µg/mL
- MIC ([1]; Neisseria gonorrhoeae strain CDC # 189): ≤ 0.25 µg/mL
- MIC ([1]; Neisseria gonorrhoeae strain CDC # 190): ≤ 0.25 µg/mL
- MIC ([1]; Neisseria gonorrhoeae strain CDC # 191): ≤ 0.25 µg/mL
- MIC ([1]; Neisseria gonorrhoeae strain CDC # 192): ≤ 0.25 µg/mL
- MIC ([1]; Neisseria gonorrhoeae strain CDC # 193): ≤ 0.25 µg/mL
- MIC ([1]; Neisseria gonorrhoeae strain CDC # 194): ≤ 0.25 µg/mL
- MIC ([1]; Neisseria gonorrhoeae strain CDC # 195): ≤ 0.25 µg/mL
- MIC ([1]; Neisseria gonorrhoeae strain CDC # 196): ≤ 0.25 µg/mL
- MIC ([1]; Neisseria gonorrhoeae strain CDC # 198): ≤ 0.25 µg/mL
- MIC ([1]; Neisseria gonorrhoeae strain CDC # 199): ≤ 0.25 µg/mL
- MIC ([1]; Neisseria gonorrhoeae strain CDC # 200): ≤ 0.25 µg/mL
- MIC ([1]; Neisseria gonorrhoeae strain CDC # 201): ≤ 0.25 µg/mL
- MIC ([1]; Neisseria gonorrhoeae strain CDC # 202): ≤ 0.25 µg/mL
- MIC ([1]; Neisseria gonorrhoeae strain CDC # 203): ≤ 0.25 µg/mL
- MIC ([1]; Neisseria gonorrhoeae strain CDC # 204): ≤ 0.25 µg/mL
- MIC ([1]; Neisseria gonorrhoeae strain CDC # 205): ≤ 0.25 µg/mL
- MIC ([1]; Neisseria gonorrhoeae strain CDC # 206): ≤ 0.25 µg/mL
- MIC ([1]; Neisseria gonorrhoeae strain CDC # 207): ≤ 0.25 µg/mL
- MIC ([1]; Neisseria gonorrhoeae strain CDC # 208): ≤ 0.25 µg/mL
- MIC ([1]; Neisseria gonorrhoeae strain CDC # 209): ≤ 0.25 µg/mL
- MIC ([1]; Neisseria gonorrhoeae strain CDC # 210): ≤ 0.25 µg/mL
- MIC ([1]; Neisseria gonorrhoeae strain CDC # 211): ≤ 0.25 µg/mL
- MIC ([1]; Neisseria gonorrhoeae strain CDC # 212): ≤ 0.25 µg/mL
- MIC ([1]; Neisseria gonorrhoeae strain CDC # 213): ≤ 0.25 µg/mL
- MIC ([1]; Neisseria gonorrhoeae strain CDC # 214): ≤ 0.25 µg/mL
- in vitro activity (in words) ([1]; against N. gonococcus (N. gonorrhoeae), Example 2 conclusion): Good in vitro activity
- LD50 (rabbits): 5000 mg/kg
- LD50 (mice): > 5000 mg/kg
